Assay results published in PMC7755424 (Journal of medicinal chemistry, 2020).
pIC50: −log10 of the molar value. In brackets after ≈: the same amount, converted by molar mass.

Columns and labels:
[1] = Solubility by light scattering; type: physicochemical; settings: 1% DMSO:99% PBS buffer
[2] = target: T1, human sEH (Homo sapiens, UniProt P34913); experiment: sEH inhibition, fluorescent-based assay; type: biochemical; settings: for reduction of the potency (hsEH) relative to 12: compared with 12
T1 sequence (P34913 1-555): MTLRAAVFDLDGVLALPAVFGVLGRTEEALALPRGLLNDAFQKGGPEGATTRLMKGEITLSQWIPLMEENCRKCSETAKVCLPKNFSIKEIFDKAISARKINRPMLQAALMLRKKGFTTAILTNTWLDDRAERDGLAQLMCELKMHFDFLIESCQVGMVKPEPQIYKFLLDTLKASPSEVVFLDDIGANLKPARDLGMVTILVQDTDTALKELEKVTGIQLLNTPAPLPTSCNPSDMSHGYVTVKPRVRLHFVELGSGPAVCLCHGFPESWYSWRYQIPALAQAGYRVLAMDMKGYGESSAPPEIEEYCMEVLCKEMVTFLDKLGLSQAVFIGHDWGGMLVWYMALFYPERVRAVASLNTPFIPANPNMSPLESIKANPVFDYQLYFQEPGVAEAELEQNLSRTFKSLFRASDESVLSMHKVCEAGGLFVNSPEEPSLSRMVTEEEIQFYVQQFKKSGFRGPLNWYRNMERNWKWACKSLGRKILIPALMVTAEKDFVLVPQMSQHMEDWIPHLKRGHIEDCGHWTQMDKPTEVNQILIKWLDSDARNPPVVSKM

[3] = test system: human recombinant cytochrome P450 enzymes, mainly CYP1A2, CYP2C9, CYP2C19, CYP2D6 and CYP3AE; experiment: Cytochrome P450 inhibition assay; type: in vitro ADME
[4] = test system: Peripheral Blood Mononuclear Cells (PBMC); experiment: Cytotoxicity in PBMCs cells + 1.5% PHA; type: cell-based; settings: highest concentration tested (20 μM)
[5] = target: hERG channel (Homo sapiens, UniProt Q12809); experiment: hERG inhibition; settings: at 10 μM
Sequence of hERG channel (Q12809 whole entry): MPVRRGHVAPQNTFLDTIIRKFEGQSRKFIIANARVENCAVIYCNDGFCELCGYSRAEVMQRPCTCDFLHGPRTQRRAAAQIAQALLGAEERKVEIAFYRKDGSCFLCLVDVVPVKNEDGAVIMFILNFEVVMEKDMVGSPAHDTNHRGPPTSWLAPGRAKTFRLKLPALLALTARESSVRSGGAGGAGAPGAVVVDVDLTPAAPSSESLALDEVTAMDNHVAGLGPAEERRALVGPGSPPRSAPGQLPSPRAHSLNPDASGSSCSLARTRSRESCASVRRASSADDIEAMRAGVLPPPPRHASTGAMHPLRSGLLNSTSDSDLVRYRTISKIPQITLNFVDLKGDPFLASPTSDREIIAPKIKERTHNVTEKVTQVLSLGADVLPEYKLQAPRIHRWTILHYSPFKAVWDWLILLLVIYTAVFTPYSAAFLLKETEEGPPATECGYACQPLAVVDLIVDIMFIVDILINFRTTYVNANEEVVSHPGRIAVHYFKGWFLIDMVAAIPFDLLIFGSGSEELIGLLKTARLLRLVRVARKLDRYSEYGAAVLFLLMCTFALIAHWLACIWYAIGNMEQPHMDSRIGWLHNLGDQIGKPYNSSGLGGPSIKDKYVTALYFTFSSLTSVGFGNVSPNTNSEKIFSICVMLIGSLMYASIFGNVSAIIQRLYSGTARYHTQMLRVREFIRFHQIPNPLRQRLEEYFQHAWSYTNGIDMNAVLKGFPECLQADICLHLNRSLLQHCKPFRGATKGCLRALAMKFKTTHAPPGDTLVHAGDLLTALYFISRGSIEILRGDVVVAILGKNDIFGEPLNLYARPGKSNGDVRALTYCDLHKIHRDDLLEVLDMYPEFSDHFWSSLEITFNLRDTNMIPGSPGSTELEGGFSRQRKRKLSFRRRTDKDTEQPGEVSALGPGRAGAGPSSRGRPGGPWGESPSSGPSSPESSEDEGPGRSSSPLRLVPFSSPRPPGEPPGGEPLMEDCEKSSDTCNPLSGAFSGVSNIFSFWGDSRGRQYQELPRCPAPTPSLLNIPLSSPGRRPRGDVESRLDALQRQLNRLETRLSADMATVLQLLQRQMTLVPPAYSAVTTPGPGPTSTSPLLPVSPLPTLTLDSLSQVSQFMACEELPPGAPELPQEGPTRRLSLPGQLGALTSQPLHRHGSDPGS

[6] = target: T2, hLOX-5 (Homo sapiens, UniProt P09917); experiment: Inhibition of human lipoxygenase-5; type: biochemical; settings: selectivity
T2 sequence (P09917 1-674): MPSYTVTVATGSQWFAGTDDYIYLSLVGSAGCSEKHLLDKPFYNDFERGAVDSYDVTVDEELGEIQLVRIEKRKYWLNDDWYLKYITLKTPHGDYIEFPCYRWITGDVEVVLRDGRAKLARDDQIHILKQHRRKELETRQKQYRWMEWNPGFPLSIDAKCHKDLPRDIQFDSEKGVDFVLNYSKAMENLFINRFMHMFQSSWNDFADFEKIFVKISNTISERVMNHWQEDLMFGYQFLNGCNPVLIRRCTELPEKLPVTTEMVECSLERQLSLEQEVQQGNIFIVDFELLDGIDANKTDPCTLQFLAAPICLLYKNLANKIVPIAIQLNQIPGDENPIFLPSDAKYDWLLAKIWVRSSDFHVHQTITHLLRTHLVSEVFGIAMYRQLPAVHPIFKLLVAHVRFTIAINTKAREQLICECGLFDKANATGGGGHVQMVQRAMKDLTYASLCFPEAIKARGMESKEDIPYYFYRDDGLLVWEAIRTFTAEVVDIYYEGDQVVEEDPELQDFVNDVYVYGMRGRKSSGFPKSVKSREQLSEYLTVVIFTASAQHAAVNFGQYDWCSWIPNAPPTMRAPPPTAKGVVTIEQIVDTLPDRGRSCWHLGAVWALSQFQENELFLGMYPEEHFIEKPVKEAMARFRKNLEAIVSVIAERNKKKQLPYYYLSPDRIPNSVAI

[7] = test system: cerulein-induced AP; experiment: In vivo efficacy, cerulein-induced AP, pre-induction; design: species or system C57BL/6J mice
[8] = test system: cerulein-induced AP; experiment: In vivo efficacy, cerulein-induced AP, post-induction; design: species or system C57BL/6J mice; settings: for inflammatory (TNF-α, IL-1β and MCP-1) and ER stress (ATF3) markers mRNA: post-induction, vs cerulein only
[9] = test system: AR42J pancreatic acinar rat cell line; experiment: In vitro proof of concept: cerulein-induced AP in AR42J cells; type: cell-based; settings: 60 μM, cerulein 10 nM
[10] = Maximum tolerated dose study; type: in vivo; settings: mice, ip daily, 5, 10, 20 and 80 mg/kg, five consecutive days
[11] = Pharmacokinetic study in mouse; settings: IP, 1 mg/kg

`CC(=O)N1CCC(NC(=O)NC23CC4CC(CC(C4)C2)C3)CC1` [Compound 1, 1-(1-Acetyl-piperidin-4-yl)-3-adamantan-1-yl-urea] gave a solubility at 2 h [1] of 24 µM (≈ 7.67 µg/mL).

`O=C(Nc1ccc(F)c(F)c1F)NC12CC3CC(C1)OC(C3)C2` [Compound 4, 1-(2-oxaadamant-5-yl)-3-(2,3,4-trifluorophenyl)urea] gave a pIC50 [2] of 7.32.

`O=C(Nc1ccc(F)c(F)c1F)NC12OC3C4C5CC(C6C5C3C61)C42` (stereo not shown) [Compound 9, 1-(4-oxahexacyclo[5.4.1.0^2,6.0^3,10.0^5,9.0^8,11]dodecan-3-yl)-3-(2,3,4-trifluorophenyl)urea] showed a pIC50 [2] of 7.50.

In the case of `CC(=O)N1CCC(NC(=O)NC23CC4CC(CC(C4)O2)C3)CC1` [Compound 12, 1-(1-acetylpiperidin-4-yl)-3-(oxaadamant-1-yl)urea], the “potency inhibiting the different cytochromes tested” value [3] was “higher than 10 μM”, the “cytotoxicity in the PBMC” value [4] was “not cytotoxic” and the “inhibition on hERG” value [5] was “minimal inhibition”.

For `O=C(NC1CCN(Cc2ccccc2)CC1)NC12CC3CC(CC(C3)O1)C2` [Compound 15, 1-(2-Oxaadamant-1-yl)-3-(1-benzylpiperidin-4-yl)urea], the “reduction of the potency (hsEH) relative to 12” value [2] was about 40 fold.

For `O=C(NC1CCN(C(=O)C2CCOCC2)CC1)NC12CC3CC(CC(C3)O1)C2` [Compound 19, 1-(2-Oxaadamant-1-yl)-3-(1-(tetrahydro-2H-pyran-4-carbonyl)piperidin-4-yl)urea], the “reduction of the potency (hsEH) relative to 12” value [2] was 10–15 fold.

With `O=C(NC1CCN(C(=O)c2cccnc2)CC1)NC12CC3CC(CC(C3)O1)C2` [Compound 20, 1-(2-Oxaadamant-1-yl)-3-(1-nicotinoylpiperidin-4-yl)urea] the “drop in inhibitory activity (hsEH) relative to 21” value ([2]; 3-pyridyl vs 2-fluorophenyl (21)) was 3 folds.

With `O=C(NC1CCN(C(=O)c2ccccc2F)CC1)NC12CC3CC(CC(C3)O1)C2` [Compound 21, 1-(2-Oxaadamant-1-yl)-3-(1-(2-fluorobenzoyl)piperidin-4-yl)urea] the “cytotoxicity in the PBMC” value [4] was “not cytotoxic” and the “inhibition of hLOX-5” value [6] was “displayed significant inhibition”.

In the case of `CC(C)S(=O)(=O)N1CCC(NC(=O)NC23CC4CC(CC(C4)O2)C3)CC1` [Compound 22, 1-(2-Oxaadamant-1-yl)-3-(1-(isopropylsulfonyl)piperidin-4-yl)urea], the “increase of inflammatory (TNF-α, IL1-β and MCP-1) and ER stress (ATF3) markers produced by cerulein” value ([7]; pre-induction, 30 mg/kg) was “significantly reduced”, the “cerulein-induced edema and inflammation (H&E histology)” value ([7]; treated before the induction of AP) was “significant decrease” and the “inflammatory (TNF-α, IL-1β and MCP-1) and ER stress (ATF3) markers mRNA” value ([8]; 3 mg/kg) was “did not cause a significant reduction”. The “inflammatory (TNF-α, IL-1β and MCP-1) and ER stress (ATF3) markers mRNA” value ([8]; 30 mg/kg) was “significant reduction”, the “cerulein-induced edema and inflammation (H&E histology)” value ([8]; treated after the induction of AP) was “significant decrease” and the “increase in the expression of IL-6, CHOP and TRB3 caused by cerulein” value [9] was “completely abolished”. For the same molecule, the “increment in TNF-α caused by cerulein exposure” value [9] was “strongly attenuated”, the “potency inhibiting the different cytochromes tested” value [3] was “higher than 10 μM” and the “cytotoxicity in the PBMC” value [4] was “not cytotoxic”. For the same molecule, the “inhibition on hERG” value [5] was “minimal inhibition”, the “toxic effects (body weight, behavior problems, petechiae)” value [10] was “No toxic effects were observed” and the “inhibition of hLOX-5” value [6] was “displayed significant inhibition”. The Cl [11] was 473.5 mL/min/kg.

With `O=C(NC1CCN(C(=O)C2CC2)CC1)NC12CC3CC(CC(C3)O1)C2` [Compound 23, 1-(2-Oxaadamant-1-yl)-3-(1-(cyclopropanecarbonyl)-piperidin-4-yl)urea] the “reduction of the potency (hsEH) relative to 12” value [2] was 10–15 fold.

For `CCC(=O)N1CCC(NC(=O)NC23CC4CC(CC(C4)O2)C3)CC1` [Compound 24, 1-(2-Oxaadamantan-1-yl)-3-(1-propionylpiperidin-4-yl)urea], the “reduction of the potency (hsEH) relative to 12” value [2] was 10–15 fold and the “inhibition of hLOX-5” value [6] was “displayed significant inhibition”.

With `CS(=O)(=O)N1CCC(NC(=O)NC23CC4CC(CC(C4)O2)C3)CC1` [Compound 26, 1-(2-Oxaadamantan-1-yl)-3-(1-(methylsulfonyl)piperidin-4-yl)urea] the “reduction of the potency (hsEH) relative to 12” value [2] was “eight”.
